Test results published in patent publication US11926826B2, “Twist signaling inhibitor compositions and methods of using the same” (City of Hope, priority 2016, dated 2024).

Tested on: TWIST
Assay: TWIST knockdown after YTZ3-15 delivery of siRNA in ovarian cancer cell lines
Type: cell-based
Experimental: PAMAM dendrimer design and delivery. The polyamidoamine (PAMAM) dendrimer used in this study is the […] third generation dendrimer, illustrated in FIG. 16A and previously described. To complex the dendrimer with siRNA, YTZ3-15 at 240 μM was mixed with […] in OptiMEM Low Serum Medium (Thermo Fisher). Upon complexing with siRNA, dendrimers form micelle structures with siRNA at the surface and the hydrophobic tails sequestered in the core (FIG. 16B). 14.6 μl YTZ3-15 and 10 μl siRNA were used per well of a 6-well plate. Final concentrations of YTZ3-15 and siRNA once added to cells were 1.75 μM and 50 nm, respectively. Where indicated, 3.5 μM YTZ3-15 and 100 nm siRNA were used for Ovcar8.
Western Blotting. Following siRNA treatment, cells were pelleted and lysed in RIPA buffer. Protein concentration was determined by BCA assay (Thermo Fisher). Following SDS-PAGE, protein was transferred to Amersham PVDF membrane (Genesee Scientific) using a BioRad Trans-Blot SD semi-dry transfer unit. Blots were then blocked in milk for one hour at room temperature or overnight at 4° C. Incubation with primary antibody took place for one hour at room temperature or overnight at 4° C. Antibodies were diluted in 5% milk, with 0.1-0.2% Tween-20. Antibodies used were TWIST 2c1a (Santa Cruz Biotechnology, Dallas, TX) at 1:250-1:500 dilution, β-Actin, A1978 (Sigma Aldrich, St. Louis, MO) at 1:2500-1:5000 dilution; and Horseradish Peroxidase (HRP) conjugated anti-mouse secondary antibodies. For film-based westerns, Blue Devil film (Genesee Scientific) and ECL Plus chemiluminescent substrate (Thermo Fisher) were used to detect protein. For digital westerns, the Syngene Pxi4 digital blot imager and Michigan Diagnostics FemtoGlow chemilumescent substrate were used.

si419: anti-TWIST siRNA; passenger 5′-GGACAAGCUGAGCAAGAUU-3′ (SEQ ID No: 1), guide 5′-AAUCUUGCUCAGCUUGUCCUU-3′ (SEQ ID No: 2) (listed as RNA, chemistry not fully specified)
TWIST knockdown (A2780R): successfully knocked down TWIST
TWIST knockdown (Ovcar8, double the usual dose (100 nM siRNA)): minimal
